Measured values from EP3254699B1, “SOLID DISPERSION CONTAINING DUTASTERIDE, AND COMPOSITION CONTAINING SAME” (Whanin Pharmaceutical. Co., Ltd., priority 2015, dated 2016).
Where two headings read alike, the source gives them in different places.

What was measured:
[1] = Solubility of dutasteride: powder suspended in water at the supersaturation concentration of 1 mg/ml, 0.45 um filtering, HPLC; assay type: physicochemical; details: raw material of dutasteride itself, compared in Experimental Example 4
Method: Alpha-cyclodextrin, beta-cyclodextrin, gamma-cyclodextrin and hydroxypropyl-beta-cyclodextrin were dissolved in water, respectively, and dutasteride was dissolved in the same amount of ethanol. Then, the two liquids were mixed to form an inclusion complex. In this case, the weight ratio of dutasteride and cyclodextrin was 1:100. The inclusion complex of cyclodextrin and dutasteride in the form of powder was obtained from the mixture solution of ethanol and distilled water through a drying process, followed by suspension in water at the supersaturation concentration of 1 mg/ml. The solubility was measured with HPLC after 0.45 um filtering. The analysis conditions and the result of solubility are as shown below.
• Column: Zobrax SB-Phenyl (150 mm x 3.0 mm, 3.5 um) or a column equivalent thereto • Mobile phase: Mixture liquid of acetonitrile and purified water (55:45, v/v) • Wavelength of detection: UV, 240 nm • Amount of injection: 50 uL • Flow rate: 0.5 mL/min
Gamma-cyclodextrin was dissolved in water, and dutasteride, polyvinyl pyrrolidone and gelucire (macrogol glyceride) were dissolved in the same amount of ethanol. Then, the experiment was performed as in Experimental Example 1 to evaluate the solubility of dutasteride.

[2] = cited from earlier work

Solubility of dutasteride [1]: not detected
SMILES: C[C@]12C=CC(=O)N[C@@H]1CC[C@@H]1[C@@H]2CC[C@]2(C)[C@@H](C(=O)Nc3cc(C(F)(F)F)ccc3C(F)(F)F)CC[C@@H]12 [dutasteride]
Solubility of dutasteride ([2]; in ethanol): 44 mg/mL | Solubility of dutasteride ([2]; in methanol): 64 mg/mL | Solubility of dutasteride ([2]; in polyethylene glycol 400): 3 mg/mL | Solubility of dutasteride ([2]; in water): poorly soluble
